smiles,measurement,value
"CC(C)n1cc(Nc2nc(-c3ccc4cn[nH]c4c3)cn3ccnc23)cn1 [Compound 5, 6-(1H-indazol-6-yl)-N-(1-isopropyl-1H-pyrazol-4-yl)imidazo[1,2-a]pyrazin-8-amine]",melting point,> 250 °C
